The source of these data is patent US9745320B2, “Five-and-six-membered heterocyclic compound, and preparation method, pharmaceutical composition and use thereof” (SHANGHAI CHEMEXPLORER CO., LTD., priority 2013, dated 2017).

One may read the IC50 as the point on the concentration scale where inhibition reaches its midpoint.

Molecules are shown by their SMILES.

Holding throughout (type): biochemical
The target in one experiment is JAK1 (Homo sapiens, UniProt P23458). The experiment can be described thus: JAK 1 enzymatic inhibitory activity IC50 assay (Caliper conversion rate). Particulars: Km ATP, 28° C., 1 hour. The method, boiled down: (§1)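 Human JAK1 or JAK2 enzyme was preincubated with graded compound (2% DMSO) in HEPES pH 7.5/Brij-35/DTT buffer (JAK1 also with Triton), then peptide substrate, 10 mM MgCl2 and ATP at Km were added. Reactions ran 1 hour at 28° C; Caliper conversion rate gave inhibition, averaged over two tests, for IC50.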

The next experiment addresses JAK2 (Homo sapiens, UniProt O60674). The experiment can be described thus: JAK 2 enzymatic inhibitory activity IC50 assay (Caliper conversion rate). The following applies: Km ATP, 28° C., 1 hour. In a few lines:
as §1

The next experiment has as its target T1, JAK3 (Homo sapiens, UniProt P52333).
T1 sequence (P52333 1-1124): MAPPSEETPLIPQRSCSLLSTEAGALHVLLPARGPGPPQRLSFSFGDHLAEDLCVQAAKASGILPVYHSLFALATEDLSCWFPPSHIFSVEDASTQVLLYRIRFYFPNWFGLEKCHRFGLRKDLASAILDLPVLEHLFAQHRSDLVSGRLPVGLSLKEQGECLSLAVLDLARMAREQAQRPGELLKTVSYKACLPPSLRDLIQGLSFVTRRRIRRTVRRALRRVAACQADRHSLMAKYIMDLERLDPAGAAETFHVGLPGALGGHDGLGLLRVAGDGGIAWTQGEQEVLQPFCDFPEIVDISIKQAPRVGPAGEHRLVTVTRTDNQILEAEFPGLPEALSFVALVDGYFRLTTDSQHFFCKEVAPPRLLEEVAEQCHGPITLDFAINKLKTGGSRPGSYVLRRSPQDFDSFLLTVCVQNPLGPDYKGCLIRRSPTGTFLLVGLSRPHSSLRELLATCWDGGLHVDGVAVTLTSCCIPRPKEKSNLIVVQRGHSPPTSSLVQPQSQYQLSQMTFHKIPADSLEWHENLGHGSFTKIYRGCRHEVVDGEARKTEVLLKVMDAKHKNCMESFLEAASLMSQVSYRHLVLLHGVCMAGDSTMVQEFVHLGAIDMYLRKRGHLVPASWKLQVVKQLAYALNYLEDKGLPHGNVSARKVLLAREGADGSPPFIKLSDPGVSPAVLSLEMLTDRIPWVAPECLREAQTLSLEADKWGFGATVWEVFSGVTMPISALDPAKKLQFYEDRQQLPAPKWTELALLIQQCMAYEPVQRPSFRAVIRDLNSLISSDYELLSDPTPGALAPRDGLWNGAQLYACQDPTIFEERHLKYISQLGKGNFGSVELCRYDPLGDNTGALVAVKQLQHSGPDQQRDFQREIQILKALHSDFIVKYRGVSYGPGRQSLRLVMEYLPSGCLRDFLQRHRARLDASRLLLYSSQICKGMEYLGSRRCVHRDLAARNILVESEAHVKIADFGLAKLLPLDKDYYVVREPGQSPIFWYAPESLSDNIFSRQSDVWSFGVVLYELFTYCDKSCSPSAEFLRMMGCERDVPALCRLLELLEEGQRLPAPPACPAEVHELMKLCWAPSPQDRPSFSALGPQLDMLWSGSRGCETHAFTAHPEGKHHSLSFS
The experiment can be described thus: JAK 3 enzymatic inhibitory activity IC50 assay (Caliper conversion rate). Particulars: Km ATP, 28° C., 1 hour; read-out: JAK 3 enzymatic inhibitory activity IC50.

Chain of JAK2 (O60674 whole entry, species assumed): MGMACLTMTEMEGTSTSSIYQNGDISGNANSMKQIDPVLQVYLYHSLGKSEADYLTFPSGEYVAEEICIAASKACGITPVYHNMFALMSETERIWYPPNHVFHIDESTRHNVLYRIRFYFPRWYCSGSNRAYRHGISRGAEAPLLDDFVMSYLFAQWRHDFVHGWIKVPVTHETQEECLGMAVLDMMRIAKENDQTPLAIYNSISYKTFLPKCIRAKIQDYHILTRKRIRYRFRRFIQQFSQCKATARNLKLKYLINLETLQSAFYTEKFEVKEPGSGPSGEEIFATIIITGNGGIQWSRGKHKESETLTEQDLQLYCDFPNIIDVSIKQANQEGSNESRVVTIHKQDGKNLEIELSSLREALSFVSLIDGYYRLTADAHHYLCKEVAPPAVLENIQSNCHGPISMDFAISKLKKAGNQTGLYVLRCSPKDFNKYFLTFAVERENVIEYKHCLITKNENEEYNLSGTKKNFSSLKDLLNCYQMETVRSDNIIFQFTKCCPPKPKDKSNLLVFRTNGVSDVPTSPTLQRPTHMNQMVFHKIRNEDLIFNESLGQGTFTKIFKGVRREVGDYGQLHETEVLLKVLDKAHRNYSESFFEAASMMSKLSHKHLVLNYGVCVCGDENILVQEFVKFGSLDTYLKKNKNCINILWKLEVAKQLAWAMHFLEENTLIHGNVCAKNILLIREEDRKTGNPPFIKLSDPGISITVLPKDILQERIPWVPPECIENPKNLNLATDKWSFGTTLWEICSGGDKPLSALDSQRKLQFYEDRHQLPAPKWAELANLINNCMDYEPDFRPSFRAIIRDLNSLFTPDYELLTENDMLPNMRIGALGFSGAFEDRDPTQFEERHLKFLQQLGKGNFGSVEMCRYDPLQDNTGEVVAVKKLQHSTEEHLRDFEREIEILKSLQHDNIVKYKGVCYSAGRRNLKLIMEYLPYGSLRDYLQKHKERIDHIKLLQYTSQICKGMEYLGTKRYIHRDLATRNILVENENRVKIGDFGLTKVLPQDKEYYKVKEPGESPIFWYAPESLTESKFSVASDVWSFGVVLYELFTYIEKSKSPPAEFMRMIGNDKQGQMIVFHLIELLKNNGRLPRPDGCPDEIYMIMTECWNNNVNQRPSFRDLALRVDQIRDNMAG
Chain of JAK1 (P23458 whole entry, species assumed): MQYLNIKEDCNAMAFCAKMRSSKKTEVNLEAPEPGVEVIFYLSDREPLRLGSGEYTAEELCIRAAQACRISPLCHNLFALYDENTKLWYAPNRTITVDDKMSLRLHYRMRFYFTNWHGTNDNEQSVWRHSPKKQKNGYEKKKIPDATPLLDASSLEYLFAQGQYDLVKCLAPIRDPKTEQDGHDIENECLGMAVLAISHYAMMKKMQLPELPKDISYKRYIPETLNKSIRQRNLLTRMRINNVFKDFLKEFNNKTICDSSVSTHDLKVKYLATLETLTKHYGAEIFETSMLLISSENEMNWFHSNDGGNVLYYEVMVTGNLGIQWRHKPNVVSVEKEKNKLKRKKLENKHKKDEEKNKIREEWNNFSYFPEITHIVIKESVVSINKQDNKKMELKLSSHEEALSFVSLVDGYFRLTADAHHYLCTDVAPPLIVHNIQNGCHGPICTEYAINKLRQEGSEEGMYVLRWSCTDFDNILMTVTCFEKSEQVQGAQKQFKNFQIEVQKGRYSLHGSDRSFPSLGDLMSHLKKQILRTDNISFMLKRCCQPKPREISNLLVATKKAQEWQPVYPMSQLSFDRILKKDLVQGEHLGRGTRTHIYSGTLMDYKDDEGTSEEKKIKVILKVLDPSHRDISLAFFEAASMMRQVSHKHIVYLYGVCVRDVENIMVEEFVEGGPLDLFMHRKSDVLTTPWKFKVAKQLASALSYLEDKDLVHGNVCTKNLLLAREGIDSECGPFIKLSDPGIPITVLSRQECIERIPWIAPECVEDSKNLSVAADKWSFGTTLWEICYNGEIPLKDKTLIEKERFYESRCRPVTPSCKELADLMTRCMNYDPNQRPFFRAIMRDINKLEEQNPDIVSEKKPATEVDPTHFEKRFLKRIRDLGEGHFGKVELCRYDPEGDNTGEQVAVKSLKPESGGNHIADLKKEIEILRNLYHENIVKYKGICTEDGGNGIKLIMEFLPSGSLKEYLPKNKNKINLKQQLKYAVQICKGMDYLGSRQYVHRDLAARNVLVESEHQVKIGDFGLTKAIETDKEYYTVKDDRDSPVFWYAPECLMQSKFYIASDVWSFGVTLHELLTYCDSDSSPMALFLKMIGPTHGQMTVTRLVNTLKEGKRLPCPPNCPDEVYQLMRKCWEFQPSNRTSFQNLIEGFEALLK

Regarding `CCS(=O)(=O)N1CC(CC#N)(n2cc(-c3nc(Nc4cnn(CC(F)(F)F)c4)nc4ccsc34)cn2)C1` [Compound T-69, 2-(1-(Ethylsulfonyl)-3-(4-(2-((1-(2,2,2-trifluoroethyl)-1H-pyrazol-4-yl)amino)thieno[3,2-d]pyrimidin-4-yl)-1H-pyrazol-1-yl)azetidin-3-yl)acetonitrile], the values for the concentration for half-maximal inhibition (IC50) at JAK1, against JAK2 and at JAK3 were less than 50 nM, less than 50 nM and 50 to 500 nM, respectively.

Turning to `CCS(=O)(=O)N1CC(CC#N)(n2cc(-c3nc(Nc4cnn(CCOC)c4)nc4ccsc34)cn2)C1` [Compound T-70, 2-(1-(Ethylsulfonyl)-3-(4-(2-((1-(2-methoxyethyl)-1H-pyrazol-4-yl)amino)thieno[3,2-d]pyrimidin-4-yl)-1H-pyrazol-1-yl)azetidin-3-yl)acetonitrile], the IC50 against JAK1, against JAK2 and at JAK3 was less than 50 nM each time.

`CCS(=O)(=O)N1CC(CC#N)(n2cc(-c3nc(Nc4cnn(CCC#N)c4)nc4ccsc34)cn2)C1` [Compound T-71, 3-(4-((4-(1-(3-(Cyanomethyl)-1-(ethylsulfonyl)azetidin-3-yl)-1H-pyrazol-4-yl)thieno[3,2-d]pyrimidin-2-yl)amino)-1H-pyrazol-1-yl)propanenitrile]: the IC50 at JAK1, on JAK2 and at JAK3 was less than 50 nM each time.

With `CCS(=O)(=O)N1CC(CC#N)(n2cc(-c3nc(Nc4cc(C)[nH]n4)nc4ccsc34)cn2)C1` [Compound T-72, 2-(1-(Ethylsulfonyl)-3-(4-(2-((5-methyl-1H-pyrazol-3-yl)amino)thieno[3,2-d]pyrimidin-4-yl)-1H-pyrazol-1-yl)azetidin-3-yl)acetonitrile], the half-maximal inhibitory concentration (IC50) against JAK1, against JAK2 and on JAK3 was less than 50 nM throughout.

For `CS(=O)(=O)CCCn1cc(Nc2nc(-c3cnn(C4(CC#N)CCC4)c3)c3sccc3n2)cn1` [Compound T-73, 2-(1-(4-(2-((1-(3-(Methylsulfonyl)propyl)-1H-pyrazol-4-yl)amino)thieno[3,2-d]pyrimidin-4-yl)-1H-pyrazol-1-yl)cyclobutyl)acetonitrile], the figures for the half-maximal inhibitory concentration (IC50) against JAK1, against JAK2 and at JAK3 were 50 to 500 nM, less than 50 nM and 50 to 500 nM, respectively.

Take `Cn1cc(Nc2nc(-c3cnn(C4(CC#N)CN(S(C)(=O)=O)C4)c3)c3sccc3n2)cn1` [Compound T-74, 2-(3-(4-(2-((1-Methyl-1H-pyrazol-4-yl)amino)thieno[3,2-d]pyrimidin-4-yl)-1H-pyrazol-1-yl)-1-(methylsulfonyl)azetidin-3-yl)acetonitrile]: the IC50 on JAK1, on JAK2 and at JAK3 was less than 50 nM throughout.

For `Cn1cc(Nc2nc(-c3cnn(C4(CC#N)CC4)c3)c3sccc3n2)cn1` [Compound T-75, 2-(1-(4-(2-((1-Methyl-1H-pyrazol-4-yl)amino)thieno[3,2-d]pyrimidin-4-yl)-1H-pyrazol-1-yl)cyclopropyl)acetonitrile], the concentration for half-maximal inhibition (IC50) against JAK1 was 50 to 500 nM; against JAK2 it was less than 50 nM; at JAK3 it was 50 to 500 nM.

Regarding `N#CCC1(n2cc(-c3nc(Nc4cnn(C5CC5)c4)nc4ccsc34)cn2)CC1` [Compound T-76, 2-(1-(4-(2-((1-Cyclopropyl-1H-pyrazol-4-yl)amino)thieno[3,2-d]pyrimidin-4-yl)-1H-pyrazol-1-yl)cyclopropyl)acetonitrile], the IC50 on JAK1 was 50 to 500 nM; at JAK2 it was less than 50 nM; on JAK3 it was 50 to 500 nM.

With `Cn1cc(Nc2nc(-c3cnn(C4(CC#N)CC(F)C4)c3)c3sccc3n2)cn1` (stereo not drawn) [Compound T-77, 2-(3-Fluoro-1-(4-(2-((1-methyl-1H-pyrazol-4-yl)amino)thieno[3,2-d]pyrimidin-4-yl)-1H-pyrazol-1-yl)cyclobutyl)acetonitrile], the IC50 against JAK1 is 50 to 500 nM; at JAK2, less than 50 nM; on JAK3, 50 to 500 nM.

As for `CC(C)(O)Cn1cc(Nc2nc(-c3cnn(C4(CC#N)CN(S(C)(=O)=O)C4)c3)c3sccc3n2)cn1` [Compound T-78, 2-(3-(4-(2-((1-(2-Hydroxy-2-methylpropyl)-1H-pyrazol-4-yl)amino)thieno[3,2-d]pyrimidin-4-yl)-1H-pyrazol-1-yl)-1-(methylsulfonyl)azetidin-3-yl)acetonitrile], the half-maximal inhibitory concentration (IC50) against JAK1, against JAK2 and at JAK3 was less than 50 nM each time.

Turning to `CC(C)(CO)n1cc(Nc2nc(-c3cnn(C4(CC#N)CN(S(C)(=O)=O)C4)c3)c3sccc3n2)cn1` [Compound T-79, 2-(3-(4-(2-((1-(1-Hydroxy-2-methylpropan-2-yl)-1H-pyrazol-4-yl)amino)thieno[3,2-d]pyrimidin-4-yl)-1H-pyrazol-1-yl)-1-(methylsulfonyl)azetidin-3-yl)acetonitrile], the IC50 at JAK1, on JAK2 and on JAK3 was less than 50 nM throughout.

As to `C[C@@H](O)Cn1cc(Nc2nc(-c3cnn(C4(CC#N)COC4)c3)c3sccc3n2)cn1` [Compound T-80, (R)-2-(3-(4-(2-((1-(2-Hydroxypropyl)-1H-pyrazol-4-yl)amino)thieno[3,2-d]pyrimidin-4-yl)-1H-pyrazol-1-yl)oxetan-3-yl)acetonitrile], the values for the IC50 at JAK1, on JAK2 and on JAK3 were 50 to 500 nM, less than 50 nM and 50 to 500 nM, respectively.

Turning to `C[C@H](O)Cn1cc(Nc2nc(-c3cnn(C4(CC#N)COC4)c3)c3sccc3n2)cn1` [Compound T-81, (S)-2-(3-(4-(2-((1-(2-Hydroxypropyl)-1H-pyrazol-4-yl)amino)thieno[3,2-d]pyrimidin-4-yl)-1H-pyrazol-1-yl)oxetan-3-yl)acetonitrile], the half-inhibitory concentration (IC50) at JAK1 was 50 to 500 nM; at JAK2, less than 50 nM; on JAK3, 50 to 500 nM.

With `C[C@H](CO)n1cc(Nc2nc(-c3cnn(C4(CC#N)COC4)c3)c3sccc3n2)cn1` [Compound T-82, (R)-2-(3-(4-(2-((1-(1-Hydroxypropan-2-yl)-1H-pyrazol-4-yl)amino)thieno[3,2-d]pyrimidin-4-yl)-1H-pyrazol-1-yl)oxetan-3-yl)acetonitrile], the IC50 on JAK1 is 50 to 500 nM; on JAK2, less than 50 nM; on JAK3, 50 to 500 nM.

As to `C[C@@H](CO)n1cc(Nc2nc(-c3cnn(C4(CC#N)COC4)c3)c3sccc3n2)cn1` [Compound T-83, (S)-2-(3-(4-(2-((1-(1-Hydroxypropan-2-yl)-1H-pyrazol-4-yl)amino)thieno[3,2-d]pyrimidin-4-yl)-1H-pyrazol-1-yl)oxetan-3-yl)acetonitrile], the 50% inhibitory concentration (IC50) was less than 50 nM against JAK1, less than 50 nM at JAK2 and 50 to 500 nM on JAK3.

In the case of `C[C@H](CO)n1cc(Nc2nc(-c3cnn(C4(CC#N)CN(S(C)(=O)=O)C4)c3)c3sccc3n2)cn1` [Compound T-84, (R)-2-(3-(4-(2-((1-(1-Hydroxypropan-2-yl)-1H-pyrazol-4-yl)amino)thieno[3,2-d]pyrimidin-4-yl)-1H-pyrazol-1-yl)-1-(methylsulfonyl)azetidin-3-yl)acetonitrile], the IC50 against JAK1, against JAK2 and at JAK3 was less than 50 nM throughout.

In the case of `C[C@@H](CO)n1cc(Nc2nc(-c3cnn(C4(CC#N)CN(S(C)(=O)=O)C4)c3)c3sccc3n2)cn1` [Compound T-85, (S)-2-(3-(4-(2-((1-(1-Hydroxypropan-2-yl)-1H-pyrazol-4-yl)amino)thieno[3,2-d]pyrimidin-4-yl)-1H-pyrazol-1-yl)-1-(methylsulfonyl)azetidin-3-yl)acetonitrile], the concentration for half-maximal inhibition (IC50) against JAK1, against JAK2 and on JAK3 was less than 50 nM throughout.

For the compound `C[C@@H](O)Cn1cc(Nc2nc(-c3cnn(C4(CC#N)CN(S(C)(=O)=O)C4)c3)c3sccc3n2)cn1` [Compound T-86, (R)-2-(3-(4-(2-((1-(2-Hydroxypropyl)-1H-pyrazol-4-yl)amino)thieno[3,2-d]pyrimidin-4-yl)-1H-pyrazol-1-yl)-1-(methylsulfonyl)azetidin-3-yl)acetonitrile], the IC50 at JAK1, against JAK2 and on JAK3 was less than 50 nM throughout.
